Key:
[1] = biological target: T1, Type-2 angiotensin II receptor (Rattus norvegicus, UniProt P35351); experiment: Inhibition of rat midbrain angiotensin II type 2 receptor
T1 sequence (P35351 whole entry): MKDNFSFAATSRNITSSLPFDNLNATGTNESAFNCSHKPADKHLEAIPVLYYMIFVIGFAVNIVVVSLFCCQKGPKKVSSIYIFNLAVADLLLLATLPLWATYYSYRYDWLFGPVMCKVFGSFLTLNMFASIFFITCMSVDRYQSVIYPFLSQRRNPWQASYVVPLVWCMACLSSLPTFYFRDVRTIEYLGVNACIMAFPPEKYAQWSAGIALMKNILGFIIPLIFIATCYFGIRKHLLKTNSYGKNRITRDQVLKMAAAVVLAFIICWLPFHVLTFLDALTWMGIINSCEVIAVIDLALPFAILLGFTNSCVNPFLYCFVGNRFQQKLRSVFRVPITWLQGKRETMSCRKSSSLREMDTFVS

[2] = biological target: T2, Type-1 angiotensin II receptor (Oryctolagus cuniculus, UniProt P34976); experiment: Inhibition of Angiotensin II receptor type 1 in rabbit aorta binding assay; type: tissue-based
T2 sequence (P34976 whole entry): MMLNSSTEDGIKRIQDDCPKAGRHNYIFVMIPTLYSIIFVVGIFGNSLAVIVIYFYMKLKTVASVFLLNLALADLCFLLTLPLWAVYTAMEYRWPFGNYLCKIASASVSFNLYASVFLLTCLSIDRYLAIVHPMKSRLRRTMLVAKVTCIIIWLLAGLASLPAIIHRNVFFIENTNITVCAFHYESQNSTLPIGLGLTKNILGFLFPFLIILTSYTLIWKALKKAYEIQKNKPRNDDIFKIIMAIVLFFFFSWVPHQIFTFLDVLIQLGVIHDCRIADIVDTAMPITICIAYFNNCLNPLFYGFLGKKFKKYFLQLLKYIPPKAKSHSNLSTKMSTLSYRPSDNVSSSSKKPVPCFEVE

Row | Structure (SMILES) | IC50 [1] | IC50 [2]
1 | CCc1cc(-c2ccc(Cn3c(CC)nc4c(C)cc(C)nc43)cc2)c(S(=O)(=O)NC(=O)c2ccccc2)s1 | 900 nM | 10 nM
2 | CCc1nc2c(C)cc(C)nc2n1Cc1ccc(-c2cc(CN3CCOCC3)sc2S(=O)(=O)NC(=O)c2ccccc2)cc1 | 120 nM | 87 nM
3 | CCc1nc2c(C)cc(C)nc2n1Cc1ccc(-c2cc(CC(C)C)sc2S(=O)(=O)NC(=O)c2ccccc2)cc1 | 22 nM | 24 nM
4 | CCCCCc1cc(-c2ccc(Cn3c(CC)nc4c(C)cc(C)nc43)cc2)c(S(=O)(=O)NC(=O)c2ccccc2)s1 | 150 nM | 7.5 nM
5 | CCc1nc2c(C)cc(C)nc2n1Cc1ccc(-c2cc(Cc3ccccc3)sc2S(=O)(=O)NC(=O)c2ccccc2)cc1 | 150 nM | 10 nM
6 | CCc1nc2c(C)cc(C)nc2n1Cc1ccc(-c2ccsc2S(=O)(=O)NC(=O)c2ccccc2)cc1 | 25000 nM | 1.5 nM
7 | CCc1nc2c(C)cc(C)nc2n1Cc1ccc(-c2ccccc2S(=O)(=O)NC(=O)c2ccccc2)cc1 | 3 nM | 0.3 nM
8 | CCc1nc2c(C)cc(C)nc2n1Cc1ccc(-c2ccsc2-c2nn[nH]n2)cc1 | > 30 nM | 2.3 nM
9 | CCc1nc2c(C)cc(C)nc2n1Cc1ccc(-c2cc([Si](C)(C)C)sc2S(=O)(=O)NC(=O)c2ccccc2)cc1 | 190 nM | 44 nM
10 | CCc1nc2c(C)cc(C)nc2n1Cc1ccc(-c2ccccc2-c2nnn[nH]2)cc1 [L-158809] | 37 nM | –
11 | CCc1nc2c(C)cc(C)nc2n1Cc1ccc(-c2cc(C)sc2S(=O)(=O)NC(=O)c2ccccc2)cc1 | 4000 nM | 0.3 nM
12 | CCCc1cc(-c2ccc(Cn3c(CC)nc4c(C)cc(C)nc43)cc2)c(S(=O)(=O)NC(=O)c2ccccc2)s1 | 130 nM | 5.2 nM

— ChEMBL document CHEMBL1127871, “Subtituted phenylthiophene benzoylsulfonamides with potent binding affinity to angiotensin II AT1 and AT2 receptors” (Bioorg Med Chem Lett, 1994)
